Data: patent US20130273207A1, “Calcium Fortifying Composition for Strength, a Hydration Supplement, and Process for Preparing the Same” (priority 2010, published 2013)
Read-outs that look alike come from different tables or passages of the source.

Legend:
[1] = cited from earlier work; for % bioavailability of Ca out of inorganic Ca: consumption 1000 mg of product; for Bioavailability (in words): human and animal studies
[2] = Calcium available to human body (bioavailability) from Ca products; details: consumption 1000 mg of product
Text: Bioavailability of Calcium Lactate Gluconate: the effectiveness of the nutrient depends on its bioavailability, which means how well the human body absorbs and utilizes it for various functions occurring in the body. On an average, about 10 to 30% of the total calcium is only get absorbed from a mixed diet by healthy adults. Many different factors influence this level of availability, one being the type of salt providing calcium. […] Calcium Lactate Gluconate is primarily used in applications where solubility and clarity are important.

[3] = Solubility in water; details: RDA of calcium equals 800 mg per day in the EU
[4] = cited from earlier work
[5] = cited from earlier work; remark: listed apart in the source
[6] = system: women; details: over 4,000 women, calcium in drinking water; cited from earlier work

Compound: O=C([O-])CC(O)(CC(=O)[O-])C(=O)[O-].O=C([O-])CC(O)(CC(=O)[O-])C(=O)[O-].[Ca+2].[Ca+2].[Ca+2] [Ca Citrate]
- % bioavailability of Ca out of inorganic Ca [1]: 50%

Compound: calcium phosphate [Ca Phosphate]
- Total Ca absorbed by the body [2]: 39 mg
- % bioavailability of Ca out of inorganic Ca [1]: 10%

Compound: CC(O)C(=O)[O-].O=C([O-])[C@H](O)[C@@H](O)[C@H](O)[C@H](O)CO.[Ca+2] [CLG, Calcium Lactate Gluconate]
- % of RDA in 100 ml [3]: 650%
- Solubility (in words) [4]: High solubility (the most soluble forms of organic Ca)
- Solubility [g Ca/L water] ([4]; water): 52 g Ca/L water
- Solubility [g/L water] ([4]; water): 400 g/L water
- Solubility [g/L water] ([4]; water, listed as Calcium Lactate Gluconate): approx. 400 g/L water
- Total Ca absorbed by the body (mg) [2]: Max.
- % bioavailability of Ca out of inorganic Ca [1]: High*
- Bioavailability (in words) [1]: highly bioavailable
- Bioavailability (in words) ([1]; listed as Ca lactate gluconate): Excellent bioavailability. (maintains that solubility during transit through the small intestine, during which time it is exposed to passive diffusion sites, therefore maximizing Ca absorption).

Compound: [Cu] [Copper]
- Safe Intake level ([5]; in vivo): 10 mg
- safe upper limit ([5]; in vivo): limit of 10 mg/day in a 60 kg adult

Compound: CC(O)C(=O)[O-].CC(O)C(=O)[O-].[Ca+2] (stereo not shown) [calcium lactate]
- Total Ca absorbed by the body [2]: 122 mg
- % bioavailability of Ca out of inorganic Ca [1]: 33%

Compound: [Ca+2] [Ionic Ca (Ca^++), Ionic Ca]
- % bioavailability of Ca out of inorganic Ca [1]: 100%

Compound: O=C([O-])[O-].[Ca+2] [Ca Carbonate, calcium carbonate]
- Total Ca absorbed by the body [2]: 40 mg
- % bioavailability of Ca out of inorganic Ca [1]: 10%

Compound: [Ca+2] [Calcium]
- total calcium absorbed from a mixed diet ([1]; healthy adults, on an average): 10 to 30%
- Validation: risk of toxicity (in words) ([5]; 60 mg per liter): No risk of toxicity
- Safe Intake level ([5]; Source: Expert group of vitamins & Minerals, UK - 2003): 1500 mg
- doses that might induce some gastrointestinal side effects in some individuals ([5]; human trials): indicate that higher doses (of 2500 mg
- supplemental Ca with no adverse effect ([5]; in vivo): 1500 mg per day
- bone density [6]: associated with an increase in their bone density
